Test results reported in patent US5538975A, “1,3-oxathiolane nucleoside compounds and compositions” (BioChem Pharma, Inc., priority 1991, dated 1996).
Converted amounts (≈) assume the structure as drawn. Read-outs that look alike come from different tables or passages of the source.

Key:
[1] = system: HIV-1 strain RF; test: microbe, parasite or virus in culture; settings: Human immunodeficiency virus 1, MT4, in Homo sapiens, read-out: 50% Antiviral Activity, Formazan
Protocol: Antiviral activity of the compound of Example 1 was determined against HIV-1 in the following cell lines.
MT-4 cells, a human T-cell leukaemia cell line, infected with HIV-1 strain RF.
Antiviral activity in C8166 cells was determined by inhibition of syncytium formation (Tochikura et al Virology, 164, 542-546) and in MT-4 cells by inhibition of formazan conversion [Baba et al, Biochem Biophys Res Commun., 142, pp. 128-134 (1987); Mossman, J. Immun. Meth., 65, pp. 55-57 (1983)]. Antiviral activities were also determined by analyzing the amount of HIV p24 antigen synthesized in the presence and absence of enantiomers.

[2] = system: CD4 cell lines; test: Cytotoxicity of the enantiomers (general statement); assay type: cell-based; settings: in words
[3] = system: HIV
[4] = in vitro; settings: human
Protocol: The cytotoxicities of the compounds of Example 1 and the racemic compound (Intermediate 1) were determined in two CD4 cell lines: H9 and CEM.
Compounds for test were serially diluted from 100 μg/ml to 0.3 μg/ml (final concentrations) in 96 well microtitre plates. 3.6×10^4 cells were inoculated into each well of the plates including drug-free controls. After incubation at 37° C. for 5 days, the viable cell count was determined by removing a sample of cell suspension and counting trypan blue excluding cells in a hemocytometer.

[5] = system: HIV-1 strain RF; test: Antiviral activity, inhibition of syncytium formation in C8166 cells; assay type: cell-based, HIV-1; C8166 human T-lymphoblastoid cell line
[6] = system: HIV p24 antigen (HIV-1 RF); test: Inhibition of HIV p24 antigen synthesis in C8166 cells; assay type: cell-based, HIV-1; C8166 human T-lymphoblastoid cell line

SMILES | IC50 [1] | cytotoxicity [2] | activity relative to the (+)-enantiomer [3] | CC50 at 120 h ([4]; cem cells) | CC50 at 120 h ([4]; h9 cells) | IC50 ([5]; Human immunodeficiency virus 1, C8166, read-out: 50% Antiviral Activity, Inhibition of syncytium formation) | IC50 ([6]; Human immunodeficiency virus 1, C8166, read-out: 50% Inhibition HIV p24 Synthesis) | IC50 ([5]; Human immunodeficiency virus 1, C8166 cells, HIV-1 RF, read-out: 50% Antiviral Activity, Inhibition of syncytium formation) | IC50 ([6]; Human immunodeficiency virus 1, C8166 cells, virus RF, read-out: 50% Inhibition HIV p24 Synthesis)
Nc1nc(=O)n([C@@H]2CS[C@H](CO)O2)cc1F [(-)-enantiomer, (-)-4-amino-5-fluoro-1-(2-hydroxymethyl-1,3-oxathiolan-5-yl)-(1H)-pyrimidin-2-one] | 0.14 µg/mL (≈ 0.566 µM) | unexpectedly low cytotoxicity | much more active than the (+)-enantiomer | 148 µg/mL (≈ 599 µM) | 296 µg/mL (≈ 1200 µM) | – | – | – | –
Cc1cn([C@H]2C[C@H](N=[N+]=[N-])[C@@H](CO)O2)c(=O)[nH]c1=O [AZT, 3'-azido-3'-deoxythymidine, reference compound] | – | – | – | – | – | 0.0038 µg/mL (≈ 0.0142 µM) | 0.017 µg/mL (≈ 0.0636 µM) | – | –
Nc1nc(=O)n([C@H]2CS[C@@H](CO)O2)cc1F [(+)-enantiomer, (+)-cis-2-hydroxymethyl-5-(5'-fluorocytosin-1'-yl) -1,3-oxathiolane] | > 1 µg/mL | unexpectedly low cytotoxicity | – | 217 µg/mL (≈ 878 µM) | 334 µg/mL (≈ 1350 µM) | – | – | 0.04 µg/mL (≈ 0.162 µM) | 0.1 µg/mL (≈ 0.404 µM)
Nc1nc(=O)n([C@@H]2CS[C@H](CO)O2)cc1F (relative stereo) [Intermediate 1, (±)-Cis-2-hydroxymethyl-5-(5'-fluorocytosin-1'-yl)1,3-oxathiolane] | 0.065 µg/mL (≈ 0.263 µM) | – | – | 173 µg/mL (≈ 700 µM) | 232 µg/mL (≈ 938 µM) | – | – | – | –
